Source: US9512107B2, “Therapeutically active compositions and their methods of use” (Agios Pharmaceuticals, Inc., priority 2012, dated 2016)
pIC50: −log10 of the molar value.

Tested on: U87MG pLVX-IDH2 R140Q-neo cells
Assay: U87MG pLVX-IDH2 R140Q-neo cell based assay, 2-HG in media by LC-MS at 48 hours
Details: Homo sapiens, U-87 MG
Procedure: U87MG pLVX-IDH2 R140Q-neo cells are grown in T125 flasks in DMEM containing 10% FBS, 1× penicillin/streptomycin and 500 μg/mL G418. They are harvested by trypsin and seeded into 96 well white bottom plates at a density of 5000 cell/well in 100 μl/well in DMEM with 10% FBS. No cells are plated in columns 1 and 12. Cells are incubated overnight at 37° C. in 5% CO2. The next day compounds are made up at 2× concentration and 100 ul are added to each cell well. The final concentration of DMSO is 0.2% and the DMSO control wells are plated in row G. The plates are then placed in the incubator for 48 hours. At 48 hours, 100 ul of media is removed from each well and analyzed by LC-MS for 2-HG concentrations. The cell plate is placed back in the incubator for another 24 hours. At 72 hours post compound addition, 10 mL/plate of Promega Cell Titer Glo reagent is thawed and mixed. The cell plate is removed from the incubator and allowed to equilibrate to room temperature. Then 100 ul of reagent is added to each well of media. The cell plate is then placed on an orbital shaker for 10 minutes and then allowed to sit at room temperature for 20 minutes. The plate is then read for luminescence with an integration time of 500 ms to determine compound effects on growth inhibition.

pIC50	Structure (SMILES)
5.00 to 6.00	CC(C)(O)CNc1nc(Nc2ccncc2)nc(-c2ccccc2)n1 [Compound 265, 2-methyl-1-(4-phenyl-6-(pyridin-4-ylamino)-1,3,5-triazin-2-ylamino)propan-2-ol]
6.00 to 7.00	COCC(C)Nc1nc(Nc2ccncc2)nc(-c2ccccc2)n1 (stereo not shown) [Compound 272, N^2-(1-methoxypropan-2-yl)-6-phenyl-N^4-(pyridin-4-yl)-1,3,5-triazine-2,4-diamine]
6.00 to 7.00	COCCCNc1nc(Nc2ccncc2)nc(-c2ccccc2)n1 [Compound 275, N^2-(3-methoxypropyl)-6-phenyl-N^4-(pyridin-4-yl)-1,3,5-triazine-2,4-diamine]
6.00 to 7.00	CC[S+]([O-])c1cccc(Nc2nc(NC(C)C)nc(-c3ccccc3)n2)c1 (stereo not shown) [Compound 277, N^2-(3-(ethylsulfinyl)phenyl)-N^4-isopropyl-6-phenyl-1,3,5-triazine-2,4-diamine]
6.00 to 7.00	Cc1ccc(Nc2nc(NC(C)C)nc(-c3ccccc3)n2)cn1 [Compound 281, N^2-isopropyl-N^4-(6-methylpyridin-3-yl)-6-phenyl-1,3,5-triazine-2,4-diamine]

Target: T1, IDH2 R140Q (Homo sapiens, UniProt P48735, R140Q)
T1 sequence (P48735 40-452 R140Q): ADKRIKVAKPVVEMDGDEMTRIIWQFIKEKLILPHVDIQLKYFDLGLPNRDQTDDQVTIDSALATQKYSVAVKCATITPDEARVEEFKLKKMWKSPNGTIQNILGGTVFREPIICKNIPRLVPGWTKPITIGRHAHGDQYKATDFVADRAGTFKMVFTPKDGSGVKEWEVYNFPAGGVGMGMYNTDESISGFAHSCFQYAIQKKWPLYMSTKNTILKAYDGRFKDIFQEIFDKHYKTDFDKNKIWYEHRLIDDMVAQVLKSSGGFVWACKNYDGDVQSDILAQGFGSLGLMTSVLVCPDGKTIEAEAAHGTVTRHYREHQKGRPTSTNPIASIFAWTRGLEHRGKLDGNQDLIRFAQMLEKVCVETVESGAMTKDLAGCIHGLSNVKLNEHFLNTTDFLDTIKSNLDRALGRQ
Assay: IDH2 R140Q enzymatic assay (cofactor depletion, similar format)
Type: biochemical
Details: not given
Procedure: [The source words this procedure for another variant and says it was used here with some conditions changed.] Compounds are assayed for IDH2 R172K inhibitory activity through a cofactor depletion assay. […] The reaction is terminated by the addition of a second enzyme, diaphorase, and a corresponding substrate, resazurin. Diaphorase reduces resazurin to the highly fluorescent resorufin with the concomitant oxidation of NADPH to NADP, both halting the IDH2 reaction by depleting the available cofactor pool and facilitating quantitation of the amount of cofactor remaining after a specific time period through quantitative production of an easily detected fluorophore.
The test compound is then incubated for one hour at room temperature with the enzyme; before starting the IDH2 reaction with the addition of 10 μl of substrate mix containing 50 μM NADPH and 6.3 mM α-KG in the buffer described above. After a further one hour of incubation at room temperature, the reaction is halted and the remaining NADPH measured through conversion of resazurin to resorufin by the addition of 25 μl Stop Mix (36 μg/ml diaphorase enzyme and 60 μM resazurin; in buffer).

Enz R140Q	Structure (SMILES)
No Fit	c1ccc(-c2nc(NCC3CNCCO3)nc(Nc3ccncc3)n2)cc1 (stereo not shown) [Compound 234, N^2-(morpholin-2-ylmethyl)-6-phenyl-N^4-(pyridin-4-yl)-1,3,5-triazine-2,4-diamine]
No Fit	CC(O)CNc1nc(Nc2ccncc2)nc(-c2ccccc2)n1 (stereo not shown) [Compound 271, 1-(4-phenyl-6-(pyridin-4-ylamino)-1,3,5-triazin-2-ylamino)propan-2-ol]
No Fit	CC(CO)Nc1nc(Nc2ccncc2)nc(-c2ccccc2)n1 (stereo not shown) [Compound 278, 2-(4-phenyl-6-(pyridin-4-ylamino)-1,3,5-triazin-2-ylamino)propan-1-ol]
No Fit	OC1CCCCC1Nc1nc(Nc2ccncc2)nc(-c2ccccc2)n1 (stereo not shown) [Compound 282, 2-(4-phenyl-6-(pyridin-4-ylamino)-1,3,5-triazin-2-ylamino)cyclohexanol]
No Fit	O[C@H]1CC[C@@H](Nc2nc(Nc3ccncc3)nc(-c3ccccc3)n2)C1 [Compound 283, (1S,3R)-3-(4-phenyl-6-(pyridin-4-ylamino)-1,3,5-triazin-2-ylamino)cyclopentanol]

Same assay, conditions: read-out: Enz R140Q

Structure (SMILES)	pIC50
CN(C)C(=O)Nc1nc(Nc2ccccc2)nc(-c2ccccc2)n1 [Compound 182, 1,1-dimethyl-3-(4-phenyl-6-(phenylamino)-1,3,5-triazin-2-yl)urea]	6.00 to 7.00
OC1CCC(Nc2nc(Nc3ccncc3)nc(-c3ccccc3)n2)CC1 (stereo not shown) [Compound 256, 4-(4-phenyl-6-(pyridin-4-ylamino)-1,3,5-triazin-2-ylamino)cyclohexanol]	5.00 to 6.00
c1ccc(-c2nc(NCC3CCO3)nc(Nc3ccncc3)n2)cc1 (stereo not shown) [Compound 264, N^2-(oxetan-2-ylmethyl)-6-phenyl-N^4-(pyridin-4-yl)-1,3,5-triazine-2,4-diamine]	5.00 to 6.00
CC(C)(O)CNc1nc(Nc2ccncc2)nc(-c2ccccc2)n1 [Compound 265, 2-methyl-1-(4-phenyl-6-(pyridin-4-ylamino)-1,3,5-triazin-2-ylamino)propan-2-ol]	6.00 to 7.00
COCC(C)Nc1nc(Nc2ccncc2)nc(-c2ccccc2)n1 (stereo not shown) [Compound 272, N^2-(1-methoxypropan-2-yl)-6-phenyl-N^4-(pyridin-4-yl)-1,3,5-triazine-2,4-diamine]	6.00 to 7.00
c1ccc(-c2nc(Nc3ccncc3)nc(NC3CCCOC3)n2)cc1 (stereo not shown) [Compound 273, 6-phenyl-N^2-(pyridin-4-yl)-N^4-(tetrahydro-2H-pyran-3-yl)-1,3,5-triazine-2,4-diamine]	< 5.00
COC(C)CNc1nc(Nc2ccncc2)nc(-c2ccccc2)n1 (stereo not shown) [Compound 274, N^2-(2-methoxypropyl)-6-phenyl-N^4-(pyridin-4-yl)-1,3,5-triazine-2,4-diamine]	< 5.00
COCCCNc1nc(Nc2ccncc2)nc(-c2ccccc2)n1 [Compound 275, N^2-(3-methoxypropyl)-6-phenyl-N^4-(pyridin-4-yl)-1,3,5-triazine-2,4-diamine]	6.00 to 7.00
CC[S+]([O-])c1cccc(Nc2nc(NC(C)C)nc(-c3ccccc3)n2)c1 (stereo not shown) [Compound 277, N^2-(3-(ethylsulfinyl)phenyl)-N^4-isopropyl-6-phenyl-1,3,5-triazine-2,4-diamine]	> 7.00
N#CC1(Nc2nc(Nc3ccncc3)nc(-c3ccccc3)n2)CC1 [Compound 285, 1-(4-phenyl-6-(pyridin-4-ylamino)-1,3,5-triazin-2-ylamino)cyclopropanecarbonitrile]	5.00 to 6.00
CC(C)(C)C(CO)Nc1nc(Nc2ccncc2)nc(-c2ccccc2)n1 (stereo not shown) [Compound 286, 3,3-dimethyl-2-(4-phenyl-6-(pyridin-4-ylamino)-1,3,5-triazin-2-ylamino)butan-1-ol]	< 5.00
O=C(CO)Nc1nc(Nc2ccccc2)nc(-c2ccccc2)n1 [Compound 348, 2-hydroxy-N-(4-phenyl-6-(phenylamino)-1,3,5-triazin-2-yl)acetamide]	< 5.00
O=C(Nc1nc(Nc2ccccc2)nc(-c2ccccc2)n1)C1(O)CC1 [Compound 412, 1-hydroxy-N-(4-phenyl-6-(phenylamino)-1,3,5-triazin-2-yl)cyclopropanecarboxamide]	5.00 to 6.00
O=C1CCC(C(=O)Nc2nc(Nc3ccccc3)nc(-c3ccccc3)n2)N1 (stereo not shown) [Compound 413, 5-oxo-N-(4-phenyl-6-(phenylamino)-1,3,5-triazin-2-yl)pyrrolidine-2-carboxamide]	< 5.00
O=C(Nc1nc(Nc2ccccc2)nc(-c2ccccc2)n1)C1CCOC1 (stereo not shown) [Compound 415, N-(4-phenyl-6-(phenylamino)-1,3,5-triazin-2-yl)tetrahydrofuran-3-carboxamide]	< 5.00

Now from value to compound:

pIC50	Structure (SMILES)
6.00 to 7.00	CC(C)Nc1nc(Nc2ccccc2)nc(-c2ccc(C#N)cc2)n1 [Compound 108]
6.00 to 7.00	CCNC(=O)Nc1nc(Nc2ccccc2)nc(-c2ccccc2)n1 [Compound 207, 1-ethyl-3-(4-phenyl-6-(phenylamino)-1,3,5-triazin-2-yl)urea]
6.00 to 7.00	c1ccc(-c2nc(NCC3CCCO3)nc(Nc3ccncc3)n2)cc1 (stereo not shown) [Compound 222, 6-phenyl-N^2-(pyridin-4-yl)-N^4-((tetrahydrofuran-2-yl)methyl)-1,3,5-triazine-2,4-diamine]
6.00 to 7.00	CC1(Nc2nc(Nc3ccncc3)nc(-c3ccccc3)n2)COC1 [Compound 251, N^2-(3-methyloxetan-3-yl)-6-phenyl-N^4-(pyridin-4-yl)-1,3,5-triazine-2,4-diamine]
5.00 to 6.00	c1ccc(-c2nc(Nc3ccncc3)nc(NC3CCOCC3)n2)cc1 [Compound 258, 6-phenyl-N^2-(pyridin-4-yl)-N^4-(tetrahydro-2H-pyran-4-yl)-1,3,5-triazine-2,4-diamine]
6.00 to 7.00	O=C1CC(Nc2nc(Nc3ccncc3)nc(-c3ccccc3)n2)C1 [Compound 276, 3-(4-phenyl-6-(pyridin-4-ylamino)-1,3,5-triazin-2-ylamino)cyclobutanone]
< 5.00	CC(C)C(CO)Nc1nc(Nc2ccncc2)nc(-c2ccccc2)n1 (stereo not shown) [Compound 279, 3-methyl-2-(4-phenyl-6-(pyridin-4-ylamino)-1,3,5-triazin-2-ylamino)butan-1-ol]
< 5.00	c1ccc(-c2nc(Nc3ccncc3)nc(NC3CCCCC3)n2)cc1 [Compound 280, N^2-cyclohexyl-6-phenyl-N^4-(pyridin-4-yl)-1,3,5-triazine-2,4-diamine]
> 7.00	Cc1ccc(Nc2nc(NC(C)C)nc(-c3ccccc3)n2)cn1 [Compound 281, N^2-isopropyl-N^4-(6-methylpyridin-3-yl)-6-phenyl-1,3,5-triazine-2,4-diamine]
6.00 to 7.00	c1ccc(-c2nc(Nc3ccncc3)nc(NC3CCCC3)n2)cc1 [Compound 287, N^2-cyclopentyl-6-phenyl-N^4-(pyridin-4-yl)-1,3,5-triazine-2,4-diamine]
6.00 to 7.00	O=C(Nc1nc(Nc2ccccc2)nc(-c2ccccc2)n1)c1ccn[nH]1 [Compound 347, N-(4-phenyl-6-(phenylamino)-1,3,5-triazin-2-yl)-1H-pyrazole-5-carboxamide]
5.00 to 6.00	CC#Cc1cccc(-c2nc(Nc3cccc(S(C)(=O)=O)c3)nc(NC(C)C)n2)n1 [Compound 365, N^2-isopropyl-N^4-(3-(methylsulfonyl)phenyl)-6-(6-(prop-1-ynyl)pyridin-2-yl)-1,3,5-triazine-2,4-diamine]
